Values of other authors, collected in US20140335365A1, “GYPSUM BOARD HAVING MOLD RESISTANCE” (priority 2007, published 2014).
Read-outs that look alike come from different tables or passages of the source. Blank lines part the entries; values can stand above or below the compound they belong to.

water solubility: 30 ppm
water solubility (Table 1, anti-mold agents used): 30 ppm
Structure (SMILES): c1ccc2[nH]c(-c3cscn3)nc2c1 [TBZ, 2-(4-thiazolyl)-benzimidazole]

water solubility: insoluble
Structure (SMILES): O=C1c2ccccc2C(=O)N1SC(F)(Cl)Cl [fluor-folpet, N-(fluorodichloromethylthio)-phthalimide]

water solubility: 10 ppm
Structure (SMILES): Oc1cc(Cl)ccc1Oc1ccc(Cl)cc1Cl [triclosan, 2,4,4′-trichloro-2′-hydroxydiphenylether]

The remaining lines, values behind:

Structure (SMILES): CCCCNC(=O)OCC#CI [IPBC, 3-iodo-2-propyl butyl carbamate]
water solubility: 156 ppm
water solubility (Table 1, anti-mold agents used): 156 ppm

Structure (SMILES): [O-][n+]1ccccc1[S][Na] [SPT, (2-pyridinethiol-1-oxide) sodium]
water solubility: 530000 ppm
water solubility (Table 1, anti-mold agents used): 530000 ppm

Structure (SMILES): N#CSCSc1nc2ccccc2s1 [TCMTB, 2-(4-thiocyanomethylthio)benzothiazole]
water solubility: 330 ppm

Structure (SMILES): [O-]n1ccccc1=S.[O-]n1ccccc1=S.[Zn+2] [ZPT, Bis[1-hydroxy-2(1H)pyridinethionato]zinc]
water solubility: 15 ppm

Structure (SMILES): Cc1ccc(S(=O)(=O)C(I)I)cc1 [diiodomethyl-p-tolylsulfone, 1-[(diiodomethyl)sulfonyl]-4-methylbenzene]
water solubility: 100 ppm
